Results reported in PubChem BioAssay AID1845217 (Molecular Pharmacology Branch, DTP, NCI, 2023).

Tested on: VA-ES-BJ tumor spheroid viability
Experiment: Anticancer human tumor VA-ES-BJ cell line growth inhibition;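 further: spheroids exposed to compounds for seven days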;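 on viability, T/C: percent of DMSO vehicle control viability so 100% = untreated growth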
Conditions: spheroids with HUVEC and MSC; for IC50: curve of first compound; for viability, T/C: stronger effect = lower value
Procedure, shortened: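 Complex tumor spheroids combined malignant cells with endothelial cells and mesenchymal stem cells. DNA-damaging drugs and DNA repair inhibitors were tested alone and in combination, at half-log dilutions down from clinical Cmax (top 10 microM if Cmax unknown), 0.25% DMSO final.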

[1] = second compound 1 µM, first compound 0.00949 µM
[2] = second compound 1 µM, first compound 0.03 µM
[3] = second compound 1 µM, first compound 0.0949 µM
[4] = second compound 1 µM, first compound 0.3 µM
[5] = second compound 1 µM, first compound 0.949 µM
[6] = second compound 1 µM, first compound 3 µM
[7] = second compound 3.16 µM, first compound 0.00949 µM
[8] = second compound 3.16 µM, first compound 0.03 µM
[9] = second compound 3.16 µM, first compound 0.0949 µM
[10] = second compound 3.16 µM, first compound 0.3 µM
[11] = second compound 3.16 µM, first compound 0.949 µM
[12] = second compound 3.16 µM, first compound 3 µM
[13] = second compound 10 µM, first compound 0.00949 µM
[14] = second compound 10 µM, first compound 0.03 µM
[15] = second compound 10 µM, first compound 0.0949 µM
[16] = second compound 10 µM, first compound 0.3 µM
[17] = second compound 10 µM, first compound 0.949 µM
[18] = second compound 10 µM, first compound 3 µM
[19] = second compound 31.6 µM, first compound 0.00949 µM
[20] = second compound 31.6 µM, first compound 0.03 µM
[21] = second compound 31.6 µM, first compound 0.0949 µM
[22] = second compound 31.6 µM, first compound 0.3 µM
[23] = second compound 31.6 µM, first compound 0.949 µM
[24] = second compound 31.6 µM, first compound 3 µM
[25] = second compound 100 µM, first compound 0.00949 µM
[26] = second compound 100 µM, first compound 0.03 µM
[27] = second compound 100 µM, first compound 0.0949 µM
[28] = second compound 100 µM, first compound 0.3 µM
[29] = second compound 100 µM, first compound 0.949 µM
[30] = second compound 100 µM, first compound 3 µM

SMILES | IC50 (second compound 1 µM) | IC50 (second compound 3.16 µM) | IC50 (second compound 10 µM) | IC50 (second compound 31.6 µM) | IC50 (second compound 100 µM) | viability, T/C [3] | viability, T/C [4] | viability, T/C [5] | viability, T/C [6] | viability, T/C [9] | viability, T/C [10] | viability, T/C [11] | viability, T/C [12] | viability, T/C [15] | viability, T/C [16] | viability, T/C [17] | viability, T/C [18] | viability, T/C [21] | viability, T/C [22] | viability, T/C [23] | further results
CNCc1ccc(-c2cc(-c3nc(-c4ccc(S(=O)(=O)C(C)C)cc4)cnc3N)on2)cc1 + Cn1nnc2c(C(N)=O)ncn2c1=O | 404 nM | 370 nM | 339 nM | 289 nM | 188 nM | 84% | 63.3% | 11.8% | 2.45% | 74.4% | 59.9% | 12.8% | 1.99% | 79.1% | 56.1% | 10.4% | 2.81% | 72.7% | 53.5% | 10.2% | viability, T/C [1]: 87.8%; viability, T/C [2]: 82%; viability, T/C [7]: 85.5%; viability, T/C [8]: 85.3%; viability, T/C [13]: 86.9%; viability, T/C [14]: 92.2%; viability, T/C [19]: 91.1%; viability, T/C [20]: 85%; viability, T/C [24]: 3.57%; viability, T/C [25]: 95.6%; viability, T/C [26]: 76.7%; viability, T/C [27]: 68%; viability, T/C [28]: 41.7%; viability, T/C [29]: 11.7%; viability, T/C [30]: 2.21%
Cc1sc2c(c1C)C(c1ccc(Cl)cc1)=NC(CC(=O)Nc1ccc(O)cc1)c1nnc(C)n1-2 (stereo not given) + Cn1nnc2c(C(N)=O)ncn2c1=O | 103 nM | 93.7 nM | 83.1 nM | 80.6 nM | 68.6 nM | 51.6% | 33.5% | 25.9% | 17.1% | 50.7% | 31.1% | 19.9% | 17.7% | 49.1% | 30.8% | 24.8% | 15.8% | 51.2% | 31.9% | 21.3% | viability, T/C [1]: 83.5%; viability, T/C [2]: 69%; viability, T/C [7]: 81.3%; viability, T/C [8]: 68.3%; viability, T/C [13]: 81.2%; viability, T/C [14]: 65.2%; viability, T/C [19]: 81.1%; viability, T/C [20]: 61.1%; viability, T/C [24]: 12.4%; viability, T/C [25]: 91.2%; viability, T/C [26]: 60.1%; viability, T/C [27]: 47.5%; viability, T/C [28]: 29.5%; viability, T/C [29]: 14.4%; viability, T/C [30]: 7.67%
Cn1ncnc1[C@H]1c2n[nH]c(=O)c3cc(F)cc(c23)N[C@@H]1c1ccc(F)cc1 + Cn1nnc2c(C(N)=O)ncn2c1=O | 537 nM | 216 nM | 57.3 nM | < 9.49 nM | < 9.49 nM | 81.8% | 68.7% | 33.1% | 7.3% | 68.4% | 55.3% | 25.1% | 7.36% | 42.8% | 26.3% | 10.4% | 7.26% | 13.4% | 10.1% | 7.36% | viability, T/C [1]: 97.4%; viability, T/C [2]: 90.7%; viability, T/C [7]: 94.4%; viability, T/C [8]: 51.4%; viability, T/C [13]: 72.3%; viability, T/C [14]: 58.8%; viability, T/C [19]: 33%; viability, T/C [20]: 20.1%; viability, T/C [24]: 5.8%; viability, T/C [25]: 12.1%; viability, T/C [26]: 7.76%; viability, T/C [27]: 7.62%; viability, T/C [28]: 7.16%; viability, T/C [29]: 6.55%; viability, T/C [30]: 5.96%
O=C(c1cc(Cc2n[nH]c(=O)c3ccccc23)ccc1F)N1CCN(C(=O)C2CC2)CC1 + Cn1nnc2c(C(N)=O)ncn2c1=O | > 30000 nM | 25400 nM | 9760 nM | 3430 nM | 669 nM | 114% | 110% | 111% | 110% | 103% | 110% | 96.8% | 106% | 110% | 113% | 111% | 87.4% | 102% | 112% | 100% | viability, T/C (second compound 1 µM, first compound 9.49 µM): 75%; viability, T/C (second compound 1 µM, first compound 30 µM): 58.5%; viability, T/C (second compound 3.16 µM, first compound 9.49 µM): 78.8%; viability, T/C (second compound 3.16 µM, first compound 30 µM): 45.2%; viability, T/C (second compound 10 µM, first compound 9.49 µM): 51.9%; viability, T/C (second compound 10 µM, first compound 30 µM): 17%; viability, T/C [24]: 54%; viability, T/C (second compound 31.6 µM, first compound 9.49 µM): 16.8%; viability, T/C (second compound 31.6 µM, first compound 30 µM): 8.16%; viability, T/C [27]: 77%; viability, T/C [28]: 72%; viability, T/C [29]: 40%; viability, T/C [30]: 15.7%; viability, T/C (second compound 100 µM, first compound 9.49 µM): 7.74%; viability, T/C (second compound 100 µM, first compound 30 µM): 6.29%
